Assay results published in patent US11260100B2, “Compositions targeting the interaction domain between p27Kip1 and Brk and methods of use thereof to inhibit p27 Y phosphorylation and cdk4 activity” (The Research Foundation for the State University of New York, priority 2014, dated 2022).

Tests used:
[1] = system: MCF-7 inducible ALT cells; test: Mouse xenograft model, MCF7-ALT tumors; assay type: in vivo, NOD/SCID mice; conditions: day 17; start volume 200 mm3; Palbociclib 100 mg/kg daily gavage, doxycycline 0.1 mg/ml in drinking water
Procedure: FIG. 14: ALT slows tumor growth in animals, and ALT and PD dual treatment causes tumor regression. MCF-7 inducible ALT cells were injected into the 4th mammary gland of NOD/SCID mice. Tumors were allowed to develop to a volume of 200 mm3, before treatment. Vehicle: daily gavage with PBS. PD: Daily gavage of Palbociclib 100 mg/kg. Doxy: 0.1 mg/ml doxycycline added to the drinking water to allow continuous uptake and induction of ALT in the human cancer cells. Doxy+PD: Daily gavage of Palbociclib 100 mg/kg and 0.1 mg/ml doxycycline added to the drinking water. Vehicle treated animals rapidly progressed and by 17 days, tumor volumes were >3000 mm PD treatment slowed down tumor growth but by day 17, tumors were >2500. […] However, dual ALT and PD (doxy/PD) treatment, caused tumor regression by […] (e.g., from 200 mm3 down to 0-40 mm3), by day 5, which was durable up to day 19.
NP-ALT was added to cell media in the absence of fetal bovine serum for 6 hours. This media was removed and replaced with FBS+media, and cells were allowed to recover for 2 days, at which time, cell counts were determined. Counts were standardized to the proliferation seen in the NO FBS untreated control. • Expression in vivo. […] Tumor volume was monitored every other day using digital calipers. […] Doxy+PD: Daily gavage of Palbociclib 100 mg/kg and 0.1 mg/ml doxycycline added to the drinking water. • Quantitative RT-PCR. […]

MCF7 (ER/PR+, Her2-) = test: Palbociclib sensitivity of breast cancer line; assay type: cell-based; conditions: Homo sapiens; MCF7, high responder
Mock MCF7 cells = test: PD0332991 inhibitor treatment, proliferation by cell counting; assay type: cell-based; conditions: Homo sapiens, 48 h post treatment, read-out: IC50 (concentration needed to inhibit proliferation by 50%)
Procedure: (§1) Immunoprecipitation with IgG served as a negative control (FIG. 6C). DNA with Hoechst stain is in blue and is merged with red and green staining (FIG. 6D). (FIG. 6E) Cdk4 was immunoprecipitated from the lysates and recombinant Rb was added to perform an in vitro kinase assay in the presence of ATP Immunoblot analysis was performed to probe for Rb, Ser780 pRb and cdk4 Immunoprecipitation with IgG served as a negative control. (FIG. 6F) Cells were treated with different concentrations of PD0332291 or DMSO as a control at Day 2. Total cell numbers were analyzed by counting 24 and 48 hours post treatment to determine IC50 values. (FIG. 6G) Cells were treated with different concentration of PD032291 or DMSO and analyzed by PI staining and FACS analysis. % G1 content is plotted.
(§2) The PCR fragments were ligated to the T7pGEMEX human His-p27 or T7pGEMEX human Flag-p27 plasmid for expression in E. coli. Mutants Y74F, Y88F, and Y88/89F were previously described (12). Flag-tagged p27 mutants were purified by Flag-immunoprecipitation with Flag antibody (M-2, Sigma F-18C9) and eluted with Flag peptide (Sigma F-4799) according to manufacturer's protocol. His-tagged p27 mutants were purified by FPLC via his-trap affinity chromatography (His-Trap HP, GE Healthcare 71-5247-01). The affinity column was stripped according to manufacturer's protocol, then washed with 5 column volumes of 100 mM CoCl2. The crude material was applied with a loading buffer consisting of 6 M urea, 500 mM NaCl, 50 mM Tris-HCl, pH 7.5 and 20% glycerol. The material was washed with 500 mM NaCl, 50 mM Tris-HCl, pH 7.5 and 10% glycerol. The purified material was eluted with 500 mM imidazole,20 mM Hepes pH 7.4 and 1 M KCl. The protein was then dialyzed overnight in a solution of 25 mM Hepes pH 7.7, 150 mM NaCl, 5 mM MgCl2 and 0.05% NP40.

MDA MB-468 cells = test: as above; assay type: cell-based; conditions: Homo sapiens, 48 h post treatment, read-out: IC50 (concentration needed to inhibit proliferation by 50%)
Procedure: as §1, §2

[2] = system: MCF7 WT Brk expressing cells; test: as above; assay type: cell-based; conditions: Homo sapiens, 48 h post treatment, read-out: IC50 (concentration needed to inhibit proliferation by 50%)
Procedure: as §1, §2

MCF10A = test: as above; assay type: cell-based; conditions: Homo sapiens, MCF-10A, 48 h post treatment, read-out: IC50 (concentration needed to inhibit proliferation by 50%)
Procedure: as §1, §2

[3] = system: MCF7 WT Brk expressing cells; test: PI staining and FACS analysis, % G1 content; assay type: cell-based, human; conditions: PD0332991 up to 100 nM
Procedure: as §1
The PCR fragments were ligated to the T7pGEMEX human His-p27 or T7pGEMEX human Flag-p27 plasmid for expression in E. coli. Mutants Y74F, Y88F, and Y88/89F were previously described (12). Flag-tagged p27 mutants were purified by Flag-immunoprecipitation with Flag antibody (M-2, Sigma F-18C9) and eluted with Flag peptide (Sigma F-4799) according to manufacturer's protocol. His-tagged p27 mutants were purified by FPLC via his-trap affinity chromatography (His-Trap HP, GE Healthcare 71-5247-01). The affinity column was stripped according to manufacturer's protocol, then washed with 5 column volumes of 100 mM CoCl2. […]

HCC1954 (ER/PR-, Her2+) = test: Palbociclib sensitivity of breast cancer line; assay type: cell-based; conditions: Homo sapiens; HCC1954, non-responder

IC50 (MCF7 (ER/PR+, Her2-)): 200 nM | IC50 [2]: > 600 nM | IC50 (HCC1954 (ER/PR-, Her2+)): > 1000 nM
SMILES: CC(=O)c1c(C)c2cnc(Nc3ccc(N4CCNCC4)cn3)nc2n(C2CCCC2)c1=O [PD0332991]
tumor volume [1]: > 2500 mm3 | IC50 (Mock MCF7 cells): 150 nM | IC50 (MDA MB-468 cells): 350 nM | IC50 (MCF10A): 110 nM | G1 content [3]: approximately 55%
